The results in this text go back to US20260199213A1, “PEPTIDE HAVING ACTIVITY OF IMPROVING STATE OF SKIN, AND USE THEREOF” (CAREGEN CO., LTD., priority 2022, published 2026).

Assay [1] concerns procollagen I alpha. Kind of assay: Procollagen I alpha protein level by Collagen ELISA in NIH3T3 cells. As to conditions: 10 μM, 50 μM or 1000 μM peptide, 72 hours. The format is cell-based. The protocol: Additionally, to evaluate the expression levels of procollagen I alpha and hyaluronic acid at the protein level, NIH3T3 cells or HaCaT cells were seeded at a density of 1×10^4 cells/well in 24-well plates and then cultured for 24 hours. Next, the cells were washed once with serum-free DMEM media, and 10 μM, 50 μM or 1000 μM of the peptide consisting of the amino acid sequence of SEQ ID NO: 1 was dispensed into 2 mL of the serum-free media, and cultured in a CO2 incubator at 37° C. for 72 hours. Next, the culture was centrifuged to settle the suspended matter, and the supernatant was transferred to an e-tube. Next, Collagen ELISA (abcam, Cat No.: ab210579, UK) and HA ELISA (ECHELON biosciences, Cat No.: K-1200, USA) were performed on the centrifuged culture. Meanwhile, in this example, an untreated group was used as the control group, and a group to which TGF-β1 or EGF was added was used as the positive control group.
For orientation: In an ELISA, binding on a coated surface is turned into a signal by an enzyme label.

Assay [2] relates to B16F10 cells. Put plainly: Melanin production in α-MSH-stimulated B16F10 cells. It counts as cell-based, mouse. As to conditions: 200 ng/ml α-MSH, 50 μM or 100 μM peptide, 72 hours, absorbance at 450 nm. Here is the method: B16F10 cells, a mouse melanoma cell line, were seeded at a density of 5×10^4 cells/well in a 6-well plate and cultured for 16 hours. Next, the culture medium was replaced with a medium including a 2% serum, and 200 ng/ml of α-MSH (α-melanocyte-stimulating hormones) was added to promote melanin production, in addition, 50 μM or 100 μM of each peptide consisting of the amino acid sequence of SEQ ID NO: 1 was added, and then cultured for 72 hours. Next, the cultured cells were dissolved with 1N NaOH and the absorbance at 450 nm was measured. Meanwhile, an untreated group (Con) was used as the control group, a group to which only α-MSH was added was used as the negative control group, a group to which the peptide consisting of the amino acid sequence of SEQ ID NO: 2 or 3 and α-MSH were added (50 μM, 100 μM) as the comparison group, and a group to which Arbutin (200 μM, 500 μM), known as a skin whitening agent, and α-MSH were added was used as the positive control group.

Regarding GPRGDP [SEQ ID NO: 1], the “expression of procollagen I alpha at the protein level” value in assay [1] is “increased”. In addition, in assay [2], the melanin production entry is given as “decreased”.
